# According to US20220324835A1 (Nurix Therapeutics, Inc., priority 2018, published 2022):
# What was measured:
# Cbl-b [1] = target: T1, Cbl-b (Homo sapiens, UniProt Q13191); experiment: Cbl-b activity assay (Cbl-b inhibition assay), TR-FRET of Cbl-b interaction with UbcH5B-Ub; assay type: biochemical
# Summary of the method: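 Compound-treated Cbl-b was incubated 1.5 h with Src kinase (60 nM final; 30 nM for asterisked values, which also used 50 mM instead of 100 mM NaCl), 1 mM ATP and 5 mM MgCl2. Binding to fluorescent Ub-loaded UbcH5B (C85K mutant) was then read by TR-FRET after 1 h more.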
# T-cell = experiment: CD25 cell surface staining on T-cells stimulated with anti-CD3 antibody alone (Biological Example 2); assay type: cell-based, human; conditions: T-cell, fold change over baseline, primary human total T-cells, read-out: CD25 staining Anti-CD3 stimulation; for fold induction at 1 µM: 1 μM Cbl-b inhibitor; for fold induction at 8 µM: 8 μM Cbl-b inhibitor
# Cbl-b [2] = target: T1, Cbl-b; experiment: Cbl-b inhibition assay (Cbl-b activity assay, FRET, Biological Example 1; 100 mM NaCl, 60 nM Src kinase); assay type: biochemical; conditions: upper bound stated in text lists; read-out: IC50 values in the Cbl-b inhibition assay of Biological Example 1
# Summary of the method: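 FRET read-out: loss of signal marks inhibition. Mix = biotin-Avi-Cbl-b (N-term), Src kinase, UbcH5B-Ub(Bodipy-FL, irreversible conjugate), streptavidin-Tb, assay buffer.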
# [3] = assay buffer with 100 mM NaCl, 60 nM Src kinase, read-out: Cbl-b activity IC50
# [4] = * assay buffer containing 50 mM NaCl instead of 100 mM NaCl and 30 nM Src kinase instead of 60 nM, read-out: Cbl-b activity IC50 (μM)*
# T1 sequence (Q13191 36-427): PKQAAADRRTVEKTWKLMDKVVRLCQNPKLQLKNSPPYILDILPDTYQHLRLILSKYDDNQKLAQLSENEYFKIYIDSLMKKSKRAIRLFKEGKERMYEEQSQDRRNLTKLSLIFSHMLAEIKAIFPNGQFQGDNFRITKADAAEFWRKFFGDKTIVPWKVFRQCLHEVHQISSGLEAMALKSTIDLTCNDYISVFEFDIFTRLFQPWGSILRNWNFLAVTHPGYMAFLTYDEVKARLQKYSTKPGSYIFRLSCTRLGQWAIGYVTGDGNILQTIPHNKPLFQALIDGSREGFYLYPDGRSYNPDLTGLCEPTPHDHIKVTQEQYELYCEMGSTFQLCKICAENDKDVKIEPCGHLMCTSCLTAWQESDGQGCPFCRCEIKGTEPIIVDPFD
SMILES,IC50 (Cbl-b [1]; [3]) [µM],fold induction at 1 µM (T-cell),fold induction at 8 µM (T-cell),IC50 (Cbl-b [2]) [nM],IC50 (Cbl-b [1]; [4]) [µM]
"Cn1cnnc1C(F)(F)C(C)(F)c1cccc(N2Cc3c(cccc3C(F)(F)F)C2=O)c1 (racemic) [Compound 296, 2-(3-(1,1,2-trifluoro-1-(4-methyl-4H-1,2,4-triazol-3-yl)propan-2-yl)phenyl)-4-(trifluoromethyl)isoindolin-1-one]",0.301 to 1,0.601 to 0.8,0.601 to 0.8,≤ 1000,–
"Cn1cnnc1CC(C)(F)c1cccc(N2Cc3c(cccc3C(F)(F)F)C2=O)c1 (racemic) [Compound 298, 2-(3-(2-fluoro-1-(4-methyl-4H-1,2,4-triazol-3-yl)propan-2-yl)phenyl)-4-(trifluoromethyl)isoindolin-1-one]",0.1 to 0.3,0.601 to 0.8,0.601 to 0.8,≤ 500,–
"C[C@H](Cc1nncn1C)c1cc(N[C@@H]2CCOC2)nc(N2Cc3c(cccc3C(F)(F)F)C2=O)c1 (stereo in doubt) [Compound 362, 2-(4-((R)-1-(4-methyl-4H-1,2,4-triazol-3-yl)propan-2-yl)-6-((S)-THF-3-ylamino)pyridin-2-yl)-4-(trifluoromethyl)isoindolin-1-one]",0.1 to 0.3,0.601 to 0.8,0.801 to 1,≤ 300,–
"Cc1cc(C(=O)Nc2cccc([C@H](C)Sc3nncn3C)c2)nc2ccccc12 [Compound 30, (S)-4-Methyl-N-(3-(1-((4-methyl-4H-1,2,4-triazol-3-yl)thio)ethyl)phenyl)quinoline-2-carboxamide]",0.301 to 1,0.601 to 0.8,0.801 to 1,≤ 500,0.301 to 1
"C[C@H](Sc1nncn1C)c1cccc(NC(=O)c2cc(C(F)(F)F)ccn2)c1 [Compound 32, (S)-N-(3-(1-((4-Methyl-4H-1,2,4-triazol-3-yl)thio)ethyl)phenyl)-4-(trifluoromethyl)picolinamide]",3 to 10,0.601 to 0.8,> 1,≤ 10000,1 to 3
"CC(C)c1cccc(C(=O)Nc2cccc([C@H](C)Sc3nncn3C)c2)n1 [Compound 33, (S)-6-Isopropyl-N-(3-(1-((4-methyl-4H-1,2,4-triazol-3-yl)thio)ethyl)phenyl)picolinamide]",0.1 to 0.3,< 0.6,0.801 to 1,≤ 500,0.301 to 1
"Cc1ccc(C(=O)Nc2cccc([C@H](C)Sc3nncn3C)c2)nc1C [Compound 35, (S)-5,6-Dimethyl-N-(3-(1-((4-methyl-4H-1,2,4-triazol-3-yl)thio)ethyl)phenyl)picolinamide]",0.301 to 1,< 0.6,0.601 to 0.8,≤ 1000,0.301 to 1
"Cc1cccc2nc(C(=O)Nc3cccc([C@H](C)Sc4nncn4C)c3)ccc12 [Compound 48, 5-Methyl-N-[3-[(1S)-1-[(4-methyl-4H-1,2,4-triazol-3-yl)sulfanyl]ethyl]phenyl]quinoline-2-carboxamide]",0.301 to 1,0.801 to 1,0.801 to 1,≤ 500,–
"C[C@H](Sc1nncn1C)c1cccc(NC(=O)c2ccc(Cl)c(C(F)(F)F)n2)c1 [Compound 51, (S)-5-chloro-N-(3-(1-((4-methyl-4H-1,2,4-triazol-3-yl)thio)ethyl)phenyl)-6-(trifluoromethyl)picolinamide]",0.1 to 0.3,0.801 to 1,> 1,≤ 500,–
"C[C@H](Sc1nncn1C)c1cccc(NC(=O)c2cc(C(C)(C)O)c(Cl)cn2)c1 [Compound 55, (S)-5-chloro-4-(2-hydroxypropan-2-yl)-N-(3-(1-((4-methyl-4H-1,2,4-triazol-3-yl)thio)ethyl)phenyl)picolinamide]",0.301 to 1,< 0.6,0.601 to 0.8,≤ 1000,–
"Cc1cc(C)nc(C(=O)Nc2cccc([C@H](C)Sc3nncn3C)c2)c1 [Compound 56, (S)-4,6-dimethyl-N-(3-(1-((4-methyl-4H-1,2,4-triazol-3-yl)thio)ethyl)phenyl)picolinamide]",0.301 to 1,< 0.6,0.801 to 1,≤ 1000,–
"Cc1ccc(C(=O)Nc2cccc([C@H](C)Sc3nncn3C)c2)nc1C(F)(F)F [Compound 61, (S)-5-methyl-N-(3-(1-((4-methyl-4H-1,2,4-triazol-3-yl)thio)ethyl)phenyl)-6-(trifluoromethyl)picolinamide]",0.1 to 0.3,0.601 to 0.8,> 1,≤ 500,–
"COc1nc(C(=O)Nc2cccc([C@H](C)Sc3nncn3C)c2)cc2ccccc12 [Compound 62, (S)-1-methoxy-N-(3-(1-((4-methyl-4H-1,2,4-triazol-3-yl)thio)ethyl)phenyl)isoquinoline-3-carboxamide]",0.1 to 0.3,< 0.6,0.801 to 1,≤ 500,–
"C[C@H](Sc1nncn1C)c1cccc(NC(=O)c2cc(C(F)(F)F)cc(C(F)(F)F)n2)c1 [Compound 64, (S)-N-(3-(1-((4-methyl-4H-1,2,4-triazol-3-yl)thio)ethyl)phenyl)-4,6-bis(trifluoromethyl)picolinamide]",0.301 to 1,< 0.6,0.601 to 0.8,≤ 1000,–
"C[C@H](Sc1nncn1C)c1cccc(NC(=O)c2cc(Cl)cc(C(F)(F)F)n2)c1 [Compound 68, (S)-4-chloro-N-(3-(1-((4-methyl-4H-1,2,4-triazol-3-yl)thio)ethyl)phenyl)-6-(trifluoromethyl)picolinamide]",0.1 to 0.3,0.601 to 0.8,0.801 to 1,≤ 500,–
"C[C@H](Sc1nncn1C)c1cccc(NC(=O)c2cc(C(F)(F)F)cc(C3CC3)n2)c1 [Compound 69, (S)-6-cyclopropyl-N-(3-(1-((4-methyl-4H-1,2,4-triazol-3-yl)thio)ethyl)phenyl)-4-(trifluoromethyl)picolinamide]",0.301 to 1,< 0.6,< 0.6,≤ 500,–
"Cc1ncc(C(=O)Nc2cccc([C@H](C)Sc3nncn3C)c2)nc1C1CC1 [Compound 70, (S)-6-cyclopropyl-5-methyl-N-(3-(1-((4-methyl-4H-1,2,4-triazol-3-yl)thio)ethyl)phenyl)pyrazine-2-carboxamide]",0.1 to 0.3,0.801 to 1,0.801 to 1,≤ 500,–
"COc1cc(C(=O)Nc2cccc([C@H](C)Sc3nncn3C)c2)nc(C(F)(F)F)c1 [Compound 71, (S)-4-methoxy-N-(3-(1-((4-methyl-4H-1,2,4-triazol-3-yl)thio)ethyl)phenyl)-6-(trifluoromethyl)picolinamide]",0.1 to 0.3,0.801 to 1,0.801 to 1,≤ 500,–
"C[C@H](Sc1nncn1C)c1cccc(NC(=O)c2ccnc(C(F)(F)F)n2)c1 [Compound 75, N-[3-[(1S)-1-[(4-methyl-1,2,4-triazol-3-yl)sulfanyl]ethyl]phenyl]-2-(trifluoromethyl)pyrimidine-4-carboxamide]",0.301 to 1,0.601 to 0.8,0.801 to 1,≤ 500,–
